Data: US20250302968A1, “RADIATION CLEAVED DRUG-CONJUGATE LINKERS ENABLE LOCAL PAYLOAD RELEASE SCLEROSIS” (The General Hospital Corporation, priority 2022, published 2025)
Like-named read-outs stand apart in the source and are kept apart here. Where a SMILES comes first, the peptide text is derived from it. [ ]: non-standard residue; d: D form. The star is where a group is joined. Dolaproine = CO[C@@H]([C@@H]1CCCN1)[C@@H](C)C(=O)O; Dil = CC[C@H](C)[C@H](NC)[C@@H](CC(=O)O)OC; X1 = C[C@@H](N*)[C@@H](O)c1ccccc1; NMeV = CN[C@H](C(=O)O)C(C)C

Assays:
[1] = Stability of prodrugs in PBS at 37° C., LC-MS; assay type: physicochemical; conditions: buffer
Description: Prodrugs were prepared to concentrations of 10 μM in PBS (pH 7.4, <2% DMF) and incubated at 37° C. to determine the relative stability under physiological conditions (FIG. 14). Aliquots of these solutions were removed after varying time intervals and analyzed via LC-MS on a Waters 3100 Mass Detector with an Xterra MS C18 Column to measure the amount of each prodrug remaining in solution. All measurements were made in triplicate and analyzed in Graphpad Prism to determine the half-lives (991, 257, and 2252 hours were determined for compounds 8, 9, and 10 respectively).

[2] = system: Bone marrow-derived macrophages (BMDM) from IL12-eYFP reporter mice; assay: Cellular immunostimulation of BMDM (p-NFkB and IL12-eYFP fluorescence); assay type: cell-based; conditions: 100 nM, 48 hours
Description: Bone marrow-derived macrophages (BMDM) were generated from IL12-eYFP reporter mice by dissecting the femurs, flushing out the bone marrow, and culturing isolate with M-CSF supplemented growth media (Luthria G, et al. Nat Commun. 2020; 11:3521]. BMDM were plated in a 96 well plate at a concentration of 5,000 cells per well. These wells were then treated with either free gardiquimod, pATFB-SIL-Mal-Gard (13), or prodrug 13 that had been treated with 10 μM tris(2-carboxyethyl) phosphine) to chemically release the free gardiquimod (all drugs at a concentration of 100 nM). The cells were then incubated for 48 hours then fixed with 4% PFA and stained with Phospho-NF-κB p65 (Ser536) (93H1) Rabbit mAb and AF647 Goat anti-Rabbit IgG. Images were captured on a modified BX63 (Olympus) inverted microscopy system equipped with an environmental chamber and robotic stage, using excitation/emission wavelengths of 513/527 and 640/670 for eYFP and Cy5, respectively. The images were then quantified using ImageJ software (NIH, USA) to determine relative protein expression.

[3] = system: 8505c (human anaplastic thyroid cancer); assay: Cytotoxicity assay, 72 hour incubation, PrestoBlue (resazurin-based); assay type: cell-based; conditions: for IC50: Homo sapiens
Description: Experiments with cancer cells were performed to assess the degree to which the disclosed linker strategy shields biological activity of the drug payload under un-irradiated conditions, and restore drug activity once irradiated.
All cells were routinely evaluated for mycoplasma contamination and cultured following provider guidelines using 10% FBS (Bio-Techne Sales), 100 IU mL-1 penicillin, 100 μg mL-1 streptomycin (Invitrogen), with incubation at 37° C. and 5% CO2. Cytotoxicity experiments were performed by seeding 5,000 cells per well overnight in a 96-well plate (Corning) before the addition of each drug/conjugate. Empty wells with only media or vehicle-treated cells were used as controls. After addition of the corresponding drugs and a 72 hour incubation, the number of live cells was determined by PrestoBlue (ThermoFisher, USA) staining according to the provider's protocols.

[4] = Drug payload stability after X-ray irradiation, LC/MS chromatograph analysis; assay type: physicochemical; conditions: 8 Gy X-ray irradiation, 100 uM in PBS, degassed
Description: FIG. 5. Illustrates drug payload stability after X-ray irradiation. […] Both drug solutions were prepared to a concentration of 100 uM in PBS and analyzed before and after irradiation. MMAE chromatographs were obtained via ELSD and DOX chromatographs were obtained via UV absorbance scan (200-800 nm).
No difference in cleavage efficiency was found between gamma irradiation from a sealed 137Cs source (primarily 662 keV photons at a dose rate of roughly 0.5 Gy/min), and X-ray irradiation (from a 4000 W tube generating 320 keV photons at 3 Gy/min), and little background release was observed under un-irradiated conditions (FIG. 4).

8505c cell line = assay: Subcellular localization of DOX by intrinsic fluorescence imaging; assay type: cell-based, human; conditions: ATC cells (8505c)
Description: Subcellular localization of DOX in the 8505c cell line was measured using a modified BX63 (Olympus) inverted microscopy system equipped with an environmental chamber and robotic stage. DOX images were collected using a 40× air objective (PLAPO 40×/0.95 numerical aperture), with excitation and emission wavelengths of 489 nm and 508 nm, respectively. All images were processed using cellSens Dimension 3.1.1 (Olympus, USA) and ImageJ 1.53k (NIH, USA) software. Nuclear to cytoplasm fluorescence ratios were calculated and plotted using Excel (Microsoft) and Prism (GraphPad). 20 μM concentration of free (or released) DOX was used, and unirradiated prodrug used the same total (caged and uncaged) DOX concentration as used in the irradiated sample. Following treatment for 72 hours, live cells were immediately imaged by confocal microscopy.

[5] = 10 μM in PBS (pH 7.4, <2% DMF), 37° C., read-out: half-life (converted)

Structure (SMILES): CC[C@@H](C)[C@H]([C@H](CC(=O)N1CCC[C@@H]1[C@@H](OC)C(C)C(=O)N[C@@H](C)[C@H](O)c1ccccc1)OC)N(C)C(=O)[C@H](CC(=O)[C@H](C(C)C)N(C)C(=O)OC(C(=O)OC)c1ccc(NC(=O)OCc2c(F)c(F)c(N=[N+]=[N-])c(F)c2F)cc1)C(C)C (some centres unmarked) [Compound 8]
- half-life at 10 μM [1, 5]: 41.3 days

Structure (SMILES): COC(=O)C(OC(=O)N[C@H]1C[C@H](O[C@H]2C[C@](O)(C(=O)CO)Cc3c(O)c4c(c(O)c32)C(=O)c2c(OC)cccc2C4=O)O[C@@H](C)[C@H]1O)c1ccc(NC(=O)OCc2c(F)c(F)c(N=[N+]=[N-])c(F)c2F)cc1 (some centres unmarked) [Compound 9]
- half-life at 10 μM [1, 5]: 10.7 days

Structure (SMILES): CCN(Cc1nc2c(N)nc3ccccc3c2n1CC(C)(C)O)C(=O)OC(C(=O)OC)c1ccc(NC(=O)OCc2c(F)c(F)c(N=[N+]=[N-])c(F)c2F)cc1 (centres unmarked) [Compound 10]
- immunostimulatory behavior compared to free gardiquimod, caged [2]: attenuated immunostimulatory behavior
- immunostimulatory activity after chemical uncaging ([2]; prodrug treated with 10 μM TCEP): restores the immunostimulatory activity
- half-life at 10 μM ([1]; pH 7.4): 93.8 days

Structure (SMILES): COC(=O)C(OC(=O)N[C@@H]1C[C@@H](O[C@H]2C[C@](O)(C(=O)CO)Cc3c(O)c4c(c(O)c32)C(=O)c2c(OC)cccc2C4=O)O[C@H](C)[C@H]1O)c1ccc(NC(=O)OCc2cc(OC)cc(OC)c2)cc1 (some centres unmarked) [DMBA-SIL-DOX]
- IC50 ([3]; 8505C, light or radiation study, read-out: concentration at which drug inhibited 50% of ATC cell growth): > 10000 nM
- fold higher IC50 than that observed for the parent drug ([3]; un-irradiated, 8505c ATC cells): roughly 100 fold

Structure (SMILES): CC[C@H](C)[C@@H]([C@@H](CC(=O)N1CCC[C@H]1[C@H](OC)[C@@H](C)C(=O)N[C@H](C)[C@@H](O)c1ccccc1)OC)N(C)C(=O)[C@@H](NC(=O)[C@@H](NC)C(C)C)C(C)C [MMAE, monomethyl auristatin E] (H-[NMeV]V[Dil][Dolaproine]-X1)
- effect of irradiation on the drug payload itself [4]: Neither MMAE nor doxorubicin themselves were substantially affected

Structure (SMILES): COc1cccc2c1C(=O)c1c(O)c3c(c(O)c1C2=O)C[C@@](O)(C(=O)CO)C[C@@H]3O[C@H]1C[C@H](N)[C@H](O)[C@H](C)O1 [doxorubicin]
- subcellular distribution of DOX fluorescence, free drug (8505c cell line): nuclear accumulation
- effect of irradiation on the drug payload itself [4]: Neither MMAE nor doxorubicin themselves were substantially affected
- IC50 ([3]; 8505c ATC cells, read-out: IC50 of parent drug): 94 nM
